Here are results for 10 compounds from PMC4956498 (Planta medica, 2016).

One data set relates to mice. The settings on record: cited from earlier work; for LD50, acute toxicity to mice: ip administration.
The test system of the next data set is Hepa 1c1c7 cells. The data set is described as follows: Cytotoxicity against Hepa 1c1c7 cells. It is filed as cell-based, mouse. The conditions noted are these: read-out: IC50, concentration that inhibits 50% cell growth.
Data set [1] relates to quinone reductase. The data set is described as follows: Quinone reductase induction assay in Hepa 1c1c7 cells. It is filed as cell-based, mouse. The settings on record: for CD, concentration required to double quinone reductase activity: 48 h.
A further data set concerns the target K-Ras (Homo sapiens, UniProt P01116). The data set is described as follows: K-Ras inhibition assay in HT-29 cells. It is filed as cell-based. The conditions noted are these: for IC50: read-out: K-Ras inhibition IC50.
Another data set addresses p65 subunit of NF-κB (Homo sapiens, UniProt Q04206). The data set is described as follows: cell-based. It is filed as cell-based.
The test system of data set [2] is CCD-112CoN human normal colon cell line. The conditions noted are these: cited from earlier work.
The subject of data set [3] is quinone reductase. The conditions noted are these: in vitro; cited from earlier work.
Another data set is described as follows: in vitro. The conditions noted are these: human.
[4] abbreviates: read-out: NF-κB p65 inhibition IC50, in HeLa cells.

Read-outs that look alike come from different tables or passages of the source.

Chain of p65 subunit of NF-κB (Q04206 whole entry): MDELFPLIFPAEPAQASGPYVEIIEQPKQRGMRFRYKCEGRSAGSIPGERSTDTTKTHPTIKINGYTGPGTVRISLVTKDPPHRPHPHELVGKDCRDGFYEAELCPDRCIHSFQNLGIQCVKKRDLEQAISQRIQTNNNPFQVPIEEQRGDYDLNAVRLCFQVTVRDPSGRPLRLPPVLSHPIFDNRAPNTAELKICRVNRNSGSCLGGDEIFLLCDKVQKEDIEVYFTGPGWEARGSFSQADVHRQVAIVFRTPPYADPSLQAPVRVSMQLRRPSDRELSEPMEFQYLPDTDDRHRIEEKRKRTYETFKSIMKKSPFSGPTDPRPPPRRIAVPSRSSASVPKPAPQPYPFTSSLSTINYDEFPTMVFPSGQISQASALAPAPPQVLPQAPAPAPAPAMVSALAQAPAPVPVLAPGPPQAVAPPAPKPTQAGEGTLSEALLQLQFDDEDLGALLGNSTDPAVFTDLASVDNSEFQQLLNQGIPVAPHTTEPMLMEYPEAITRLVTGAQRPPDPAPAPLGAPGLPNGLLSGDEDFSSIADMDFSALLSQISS

With `COc1cc2c(cc1OC)[C@@H]1C(=O)c3ccc4c(c3O[C@@H]1CO2)C=CC(C)(C)O4` [deguelin, reference compound], in the data set with mice, the “LD50, acute toxicity to mice” value is recorded as 5.0 mg/kg.

As to `C[S@@+]([O-])CCCCN=C=S` [L-sulforaphane, reference compound], the IC50 in the data set with Hepa 1c1c7 cells (Mus musculus, Hepa-1c1c7, 48 h) stood at 20.9 µM. In addition, in the data set with quinone reductase [1], the “CI, chemopreventive index (IC50/CD)” value turned out to be 40.8 and the “CD, concentration required to double quinone reductase activity” value (shortened to “CD … to double quinone reductase activity”) is 0.51 µM.

On to (−)-3-hydroxyrotenone [Compound 6], for which the Lethality to mice result in the data set with mice (dose of 5 mg/kg (ip)) is given as “lethal”. Besides, the values for the IC50 on K-Ras and at p65 subunit of NF-κB (setting [4]) were 3.1 µM and 5.3 µM, respectively. For the same compound, in data set [2], the “Cytotoxicity against the CCD-112CoN human normal colon cell line (in words)” value is “lack of cytotoxicity”.

For the compound `COc1cc2c(c3c1OC(C)(C)C=C3)O[C@H]1COc3cc4c(cc3[C@@]1(O)C2=O)OCO4` [Compound 1, (5aS ,12bS)-5a,12b-dihydro-12b-hydroxy-15-methoxy-2,2-dimethyl-2H-[1, 3]dioxolo[4,5-g]pyrano[2,3-c:6,5-f ‘]bis[1]benzopyran-13(6H)-one], the IC50 is over 40 µM in the data set with Hepa 1c1c7 cells (Hepa 1c1c7 cell line, 48 h); 9.4 µM on K-Ras; over 10 µM on p65 subunit of NF-κB (setting [4]). Besides, in the data set with quinone reductase [1], the “CD … to double quinone reductase activity” value worked out at 19.8 µM.

Consider caeruleanone C, for which, in the data set with quinone reductase [3], the “Quinone reductase (QR) induction (in words)” value is recorded as “potently induce”.

Take `C=C(C)[C@H]1Cc2c(ccc3c2O[C@@H]2COc4cc(OC)c(OC)cc4[C@@H]2C3=O)O1` [Compound 7, (−)-rotenone]: in the data set on mice, the “LD50, acute toxicity to mice” value is 2.5 mg/kg. On p65 subunit of NF-κB, this compound came in with an IC50 of over 10 µM. The compound also returned an IC50 at 3 days in the data set “in vitro” of 0.3 µM. The “Cytotoxicity against the CCD-112CoN human normal colon cell line (in words)” value in data set [2] is reported as “lack of cytotoxicity”.

For `COc1cc2c(cc1-c1coc3c4c(c(OC)cc3c1=O)OC(C)(C)C=C4)OCO2` [Compound 8, ichthynone], the IC50 in the data set on Hepa 1c1c7 cells (Mus musculus, Hepa-1c1c7, 48 h) was 35 µM; on p65 subunit of NF-κB it was over 10 µM; in the data set “in vitro”, over 10 µM. Moreover, the “CI, chemopreventive index (IC50/CD)” value in the data set with quinone reductase [1] worked out at 19.4. Further, in the data set with quinone reductase [1], the “CD … to double quinone reductase activity” value came out at 1.8 µM.

On to `COc1cc2c(cc1OC)C1(O)C(=O)c3c(O)cc4c(c3OC1CO2)C=CC(C)(C)O4` (single isomer, unassigned; (+)) [Compound 11, (+)-3-hydroxy-α-toxicarol], for which, in the data set on Hepa 1c1c7 cells (Hepa 1c1c7 cell line, 48 h), the IC50 was over 40 µM. Further, on K-Ras, the “K-Ras inhibitory activity (in words)” value is “inactive”. Moreover, in the data set with quinone reductase [1], the “CD … to double quinone reductase activity” value is on record as 6.6 µM.

Take `COC1=CC2=C(O[C@H]3COc4cc5c(cc4[C@@]3(O)C2=O)OCO5)C(CC=C(C)C)(CC=C(C)C)C1=O` (relative stereo) [Compound 3, (6aS,12aS)-rel-6a,12a-dihydro-12a-hydroxy-10-methoxy-8,8-bis(3-methyl-2-buten-1-yl)-[1]benzopyrano[2,3-c]-1,3-dioxolo[4,5-g][1] benzopyran-9,12(6H, 8H)-dione]: the IC50 in the data set with Hepa 1c1c7 cells (Hepa 1c1c7 cell line, 48 h) was over 40 µM. In the data set on quinone reductase [1], the “CI, chemopreventive index (IC50/CD)” value was over 16.8 and the “CD … to double quinone reductase activity” value was 2.4 µM.

Turning to `COc1cc2c(c3c1OC(C)(C)C=C3)O[C@H]1COc3cc4c(cc3[C@H]1C2=O)OCO4` [Compound 2, (5aR, 12bR)-5a,12b-dihydro-15-methoxy-2,2-dimethyl-2H-[1, 3]dioxolo[4,5-g]pyrano[2,3-c:6,5-f'] bis[1]benzopyran-13(6H)-one], the IC50 in the data set on Hepa 1c1c7 cells (Hepa 1c1c7 cell line, 48 h) was determined as 17.8 µM. Besides, in the data set on quinone reductase [1], the “CI, chemopreventive index (IC50/CD)” value was determined as 8.1 and the “CD … to double quinone reductase activity” value is recorded as 2.2 µM.
